Laboratory results reported in ChEMBL document CHEMBL4152281, “Synthesis, characterization and biological evaluation of tertiary sulfonamide derivatives of pyridyl-indole based heteroaryl chalcone as potential carbonic anhydrase IX inhibitors and anticancer agents” (Eur J Med Chem, 2018).

What was measured:
Carbonic anhydrase 9 = Carbonic anhydrase 9 (Homo sapiens, UniProt Q16790); assay: Inhibition of human carbonic anhydrase 9 expressed in Escherichia coli BL21 D3 strain using p-nitrophenyl acetate as substrate by UV/visible spectrophotometry
HEK293 = assay: Antiproliferative activity against HEK293 cells after 48 hrs by MTT assay; type: cell-based; conditions: Homo sapiens, HEK293, 48 h
Carbonic anhydrase 2 = Carbonic anhydrase 2 (Homo sapiens, UniProt P00918); assay: Inhibition of human carbonic anhydrase 2 expressed in Escherichia coli BL21 D3 strain using p-nitrophenyl acetate as substrate by UV/visible spectrophotometry
HepG2 = assay: Antiproliferative activity against human HepG2 cells after 48 hrs by MTT assay; type: functional, cell-based; conditions: HepG2, 48 h
MCF7 [1] = assay: Antiproliferative activity against human MCF7 cells after 48 hrs by MTT assay; type: functional, cell-based
MCF7 [2] = assay: Induction of apoptosis in human MCF7 cells assessed as necrotic cells at IC50 after 24 to 48 hrs by Annexin V-FITC/7-AAD dual staining based flow cytometry (reference value: 0.20%); type: functional
MCF7 [3] = assay: Induction of apoptosis in human MCF7 cells assessed as late apoptotic cells at IC50 after 24 to 48 hrs by Annexin V-FITC/7-AAD dual staining based flow cytometry (reference value: 1.14%); type: functional
MCF7 [4] = assay: Induction of apoptosis in human MCF7 cells assessed as viable cells at IC50 after 24 to 48 hrs by Annexin V-FITC/7-AAD dual staining based flow cytometry (reference value: 95.8%); type: functional
MCF7 [5] = assay: Induction of apoptosis in human MCF7 cells assessed as early apoptotic cells at IC50 after 24 to 48 hrs by Annexin V-FITC/7-AAD dual staining based flow cytometry (reference value: 2.74%); type: functional
[6] = Homo sapiens, MCF7, 48 h, read-out: IC50

| Structure (SMILES) | IC50 (Carbonic anhydrase 9) | IC50 (HEK293) | IC50 (Carbonic anhydrase 2) | IC50 (HepG2) | IC50 (MCF7 [1]; [6]) | Activity (MCF7 [2]) | Activity (MCF7 [3]) | Activity (MCF7 [4]) | Activity (MCF7 [5]) | IC50 (MCF7 [1]; mcf7) |
| --- | --- | --- | --- | --- | --- | --- | --- | --- | --- | --- |
| CCCS(=O)(=O)n1cc(/C=C/C(=O)c2ccncc2)c2ccccc21 | 44.5 µM | > 150 µM | > 100 µM | 46.2 µM | 52.4 µM | – | – | – | – | – |
| Cc1ccc(S(=O)(=O)n2cc(/C=C/C(=O)c3ccncc3)c3ccccc32)cc1 | 29.9 µM | > 150 µM | – | 44.8 µM | 48.9 µM | – | – | – | – | – |
| COc1cccc2c1C(=O)c1c(O)c3c(c(O)c1C2=O)C[C@@](O)(C(=O)CO)C[C@@H]3O[C@H]1C[C@H](N)[C@H](O)[C@H](C)O1 [DOXORUBICIN] | – | 143 µM | – | 18.7 µM | – | – | – | – | – | – |
| O=C(/C=C/c1cn(S(=O)(=O)c2cccc([N+](=O)[O-])c2)c2ccccc12)c1ccncc1 | 37.6 µM | > 150 µM | – | 42.6 µM | 36.3 µM | – | – | – | – | – |
| O=C(/C=C/c1cn(S(=O)(=O)c2ccc(Cl)cc2Cl)c2ccccc12)c1ccncc1 | 0.13 µM | > 150 µM | – | 14.8 µM | 12.2 µM | 0.53% | 10% | 10.6% | 78.8% | Dose-dependent effect |
| O=C(/C=C/c1cn(S(=O)(=O)c2ccc([N+](=O)[O-])cc2)c2ccccc12)c1ccncc1 | 0.15 µM | – | – | – | – | – | – | – | – | – |
| O=C(/C=C/c1cn(S(=O)(=O)c2ccccc2[N+](=O)[O-])c2ccccc12)c1ccncc1 | 57.3 µM | > 150 µM | – | 31.7 µM | 36.9 µM | – | – | – | – | – |
| O=C(/C=C/c1cn(S(=O)(=O)c2cccc3ccccc23)c2ccccc12)c1ccncc1 | 44.1 µM | > 150 µM | – | 62.9 µM | 58 µM | – | – | – | – | – |
| O=C(/C=C/c1c[nH]c2ccccc12)c1ccncc1 | – | > 150 µM | – | 49.3 µM | 45.3 µM | – | – | – | – | – |
| COc1ccc(S(=O)(=O)n2cc(/C=C/C(=O)c3ccncc3)c3ccccc32)cc1 | 26.1 µM | > 150 µM | – | 26 µM | 65.8 µM | – | – | – | – | – |
| CC(C)(C)c1ccc(S(=O)(=O)n2cc(/C=C/C(=O)c3ccncc3)c3ccccc32)cc1 | 0.15 µM | > 150 µM | – | 27 µM | 24 µM | 19.6% | 18.9% | 58.26% | 3.24% | Dose-dependent effect |
| O=C(/C=C/c1cn(S(=O)(=O)c2ccc(Cl)cc2)c2ccccc12)c1ccncc1 | 14.4 µM | > 150 µM | – | 35.1 µM | 37.5 µM | – | – | – | – | – |
